Source: patent US10391070B2, “Compositions and methods for treating neurological diseases or injury” (MUSC FOUNDATION FOR RESEARCH DEVELOPMENT, priority 2012, dated 2019)
Where two headings read alike, the source gives them in different places.

Experiments:
zebrafish larvae = experiment: Zebrafish larval toxicity (NOEC, lethal dose); assay type: in vivo; settings: 7 dpf zebrafish larvae; for Lethal dose: up to 5 h treatment; for Highest concentration tested for anti-seizure activity: highest sub-lethal dose
Experimental: Using a 96-well plate, one zebrafish larva (7 dpf) was placed in each well in 100 μL of tank water (TW). 100 μL of each compound (0.5-15 μM) was then added to each well for 12 animals (one row) to give a final volume of 200 […]. A control row was tested for DMSO toxicity effects. […] Each drug was assessed for the no observed effect concentration (NOEC), the highest non-lethal dose resulting in no apparent toxic effects.
Zebrafish (AB strain) were obtained from the Zebrafish International Resource Center (supported by P40 RR012546 from NIH-NCRR). Zebrafish were maintained and crossed according to standard methods (Westerfield, 2000). Fertilized eggs were collected and placed in E3 embryo medium and positioned in an incubator set at 28.5° C. with a 14/10 h light/dark cycle (Kimmel et al., 1995). To determine the lethal dose of each compound, 96-well plates containing one zebrafish (7 days post-fertilization, dpf) per well in 100 μL of tank water were used. 100 μL of each compound (0.5 to 15 μM) was added to each well for 12 animals (one row) for a final volume of 200 μL. One row of larvae was used as DMSO only controls. […] All zebrafish studies were approved by the Medical University of South Carolina Institutional Animal Care and Use Committee (AR #2850) and performed in accordance with the guidelines.
Using a 96-well plate, one zebrafish larva (7 dpf) was placed in each well in 100 μL of tank water. 100 μL of each compound was then added to each well for 12 animals (one row) for a final volume of 200 μL. One row of zebrafish larvae was used as DMSO only controls. […] Toxicity was also measured in the mouse model by the NIH Anticonvulsant Screening Program at the National Institute of Neurological Disorders and Stroke (Stables and Kupferberg, 1997), according to the established NIH experimental procedures. Compounds were delivered into mice by intraperitoneal (i.p.) injection at a dose of 100 mg/kg in sterile 5% DMSO, 95% Neobee (Josey et al., 2013). Acute toxicity was assessed by monitoring the animals for impaired neuromuscular function by placing treated mice on a rod rotating at 6 rpm. […]

PTZ-induced seizures = experiment: PTZ-induced seizure (swim activity) model in zebrafish larvae; assay type: in vivo, zebrafish (Danio rerio); settings: for Seizure suppression: PTZ-treated zebrafish larvae, pretreated 1 hr at NOEC
Experimental: The DanioVision locomotion tracking instrument with Ethovision XT software (Noldus) was used to measure the severity of the seizures by quantifying the locomotor activity of each fish.
In a 48-well plate, one 6-7 dpf larva was added per well. Compounds were given at a sub-lethal dose and treated for 1 h. Three control rows were included—tank water (TW) only, PTZ only and PTZ+VPA (2-4 mM final concentration of VPA). […] After 5 min, the plate was transferred to the Daniovision apparatus and the chamber light was turned on. After 2 min, Ethovision was used to determine the distance traveled (a marker of seizure of activity) by each fish for 15 min (25 frames per second). Velocity, duration of movement, and frequency of movement were also determined from the same recording. After measurement, fish were monitored visually for survival. The distance moved over the recording period with Ethovision XT software (Noldus) was averaged over 8 wells per treatment unless the fish was not detected.
In a 48-well plate, one 7 dpf zebrafish was added per well. Larvae were dosed with each compound at a sub-lethal dose 1 h prior to PTZ treatment. Three control rows were included with each experiment—tank water only control, PTZ only and PTZ+VPA (4 mM final concentration of VPA). […] After 5 min, the plate was transferred to the Daniovision instrument (Noldus Information Technology) and the chamber light was turned on. After 2 min, MediaRecorder (Noldus) was used to record video for 15 min. A small number of videos were acquired 25 frames per second, but the majority of the data was acquired at the frame rate of 60 frames per second. After recording, fish were monitored visually for survival. Ethovision XT software (Noldus) was used to track the fish movement from the video images in order to calculate the total distance traveled over 15 min. […] All experimental comparisons were made between animals from the same clutch.

HT22 cells [1] = experiment: In vitro neuroprotective activity against glutamate-induced cell death (MTS cell viability); assay type: cell-based, mouse; settings: HT22 cells; for EC50: Mus musculus, HT-22, 10 mM glutamate, 24 hrs, MTS, concentration producing 50% protection, read-out: Protection PC50
Experimental: (§1) The HT22 neuronal cell line is a subclone of HT4, derived from the mouse hippocampus (Morimoto and Koshland, 1990). […] HT22 cells were used. The cells were grown in Dulbecco's Modified Eagle's medium (DMEM/high glucose) supplemented with 10% fetal bovine serum (Hyclone) and 5 mL Antibiotic-Antimycotic (Amphotericin B, Penicillin, and Streptomycin; Invitrogen) at 37° C. in 5% CO2.
(§2) Cell viability was assessed by the ability of the viable cells to metabolize 3-(4,5-dimethylthiazol-2-yl)-5-(3-carboxymethoxyphenyl)-2(4-sulfophenyl)2-H-tetrazolium, inner salt (MTS), as described previously (Cory et al., 1991). The metabolism of tetrazolium salts is often used to measure cellular proliferation, but in the system used here, it has been previously shown to correlate well with cell viability as determined by trypan blue exclusion and colony-forming assays (Davis and Maher, 1994). Briefly, HT-22 cells were seeded onto 96-well plates at 5.0×10^3 cells per well in 75 μL of medium and maintained at 37° C. in 5% CO2 overnight prior to the initiation of experimental treatments. For glutamate toxicity testing, cells were subsequently treated with 25 μL of medium containing glutamate (monosodium glutamate, Sigma, 1 M stock concentration in media, to achieve a final concentration of 10 mM) plus inhibitors (stock in DMSO) and maintained at 37° C. in 5% CO2. For t-BuOOH toxicity testing, cells were subsequently treated with 25 μL of medium containing t-BuOOH (Sigma, 10 mM stock concentration, to achieve a final concentration of 50 μM) plus inhibitors (stock in DMSO) and maintained at 37° C. in 5% CO2 for 3 hours, after which the media was removed, cells washed gently with HBSS, the media replaced with standard culture media, and the cells returned to incubation at 37° C. in 5% CO2. For both glutamate and t-BuOOH treatments, 10 μl of MTS solution was added to each well 24 hrs after initial treatment, and the cells were maintained in growth medium for 2 h at 37° C. Absorbance at 490 nm was subsequently measured by a SpectraMax 190 plate reader (Molecular Devices). The growth medium without cells in the presence of MTS solution was used as solution background and untreated cells were considered the controls. Cell viability was calculated as a percentage compared with untreated controls. EC50 determinations were based on 12-point titrations using GraphPad Prism, and each experiment was repeated at least four times. Morphology of HT22 cells following treatments was determined by phase-contrast microscopy. Digital images of cells grown on cell culture plates were captured at 10× magnification.
The neuroprotective properties of VK and its derivatives were estimated through their protective effects against cell death in mouse neuronal HT22 cells induced by exposure to high levels of glutamate, which recapitulates a hallmark of the extracellular environment found in several neurodegenerative diseases and CNS injuries and is a well established model of neuronal oxidative stress. This investigation began by comparing the relative abilities of the two predominant naturally occurring forms of VK, VK1 and VK2, to prevent oxidative cell death. […] Several 1,4-naphthoquinones with various substitutions at the 2′ and 3′ positions were tested to determine the minimum structural requirement of the system and what the optimum scaffold for future developmental efforts and biological validation would be (FIG. 1B and Table 1). […] Substitution by a single methyl group at the 2′ position (VK3) improves the compound's ability to protect against cell death. Various other simple substituents at the 2′ and 3′ positions give the naphthoquinone structure the ability to prevent oxidative cell death at nanomolar concentrations (Table 1 and FIG. 16).

[2] = In vitro neurotoxicity without glutamate (MTS cell viability); assay type: cell-based, mouse; settings: mouse, HT22 cells without glutamate, 24 hrs, MTS, concentration producing 50% toxicity, read-out: Toxicity TC50
Experimental: as §1, §2

HT22 cells [3] = experiment: as above; assay type: cell-based, mouse; settings: for Safety Index TC50/PC50: HT22 cells
Experimental: as §1, §2

[4] = HT22 neuronal cells (without glutamate)

SMILES | EC50 (HT22 cells [1]) | CC50 at 24 h [2, 4] | Safety Index TC50/PC50 (HT22 cells [3]) | further results
CCCC(CCC)C(=O)NO [2-propylpentane hydroxamic acid (VPHA), 2-propylpentane hydroxamic acid] |  |  |  | Lethal dose (zebrafish larvae): >0.05 mM; Highest concentration tested for anti-seizure activity (zebrafish larvae): 0.05 mM; Seizure suppression (PTZ-induced seizures): No
Cc1ccc(C(=O)NC2=CC(=O)c3ccccc3C2=O)cc1 [Compound 3h, N-(1,4-dioxo-1,4-dihydronaphthalen-2-yl)-4-methylbenzamide] | 382 nM | 24000 nM | 63 | 
O=C(NC1=CC(=O)c2ccccc2C1=O)c1ccc(Cl)cc1 [Compound 3i, 4-chloro-N-(1,4-dioxo-1,4-dihydronaphthalen-2-yl)benzamide] | 405 nM | 27000 nM | 67 | 
O=C(NC1=CC(=O)c2ccccc2C1=O)c1cccc(Cl)c1 [Compound 3j, 3-chloro-N-(1,4-dioxo-1,4-dihydronaphthalen-2-yl)benzamide] | 492 nM | > 100000 nM | 203 | 
O=C(Cc1ccccc1)NC1=CC(=O)c2ccccc2C1=O [Compound 3k, N-(1,4-dioxo-1,4-dihydronaphthalen-2-yl)-2-phenylacetamide] | 658 nM |  | 49 | CC50 at 24 h [2]: 32000 nM
O=C(Cc1ccc(-c2ccccc2)cc1)NC1=CC(=O)c2ccccc2C1=O [Compound 3l, 2-([1,1′-biphenyl]-4-yl)-N-(1,4-dioxo-1,4-dihydronaphthalen-2-yl)acetamide] | 890 nM | 42000 nM | 47 | 
CCNC(=O)NC1=CC(=O)c2ccccc2C1=O [Compound 4a, 1-(1,4-dioxo-1,4-dihydronaphthalen-2-yl)-3-ethylurea] | 177 nM |  | 28 | CC50 at 24 h [2]: 5000 nM
CC(C)NC(=O)NC1=CC(=O)c2ccccc2C1=O [Compound 4b, 1-(1,4-dioxo-1,4-dihydronaphthalen-2-yl)-3-isopropylurea] | 64 nM | 8000 nM | 125 | 
O=C(NC1=CC(=O)c2ccccc2C1=O)Nc1ccccc1 [Compound 4c, 1-(1,4-dioxo-1,4-dihydronaphthalen-2-yl)-3-phenylurea] | 890 nM | > 100000 nM | 112 | 
O=C(NCc1ccccc1)NC1=CC(=O)c2ccccc2C1=O [Compound 4d, 1-benzyl-3-(1,4-dioxo-1,4-dihydronaphthalen-2-yl)urea] | 740 nM |  | 135 | CC50 at 24 h [2]: > 100000 nM
O=C(NO)C(c1ccccc1)c1ccccc1 [Diphenyl acetic hydroxamic acid (dPAHA), diphenyl acetic hydroxamic acid] |  |  |  | Lethal dose (zebrafish larvae): 0.01 mM; Highest concentration tested for anti-seizure activity (zebrafish larvae): 0.0075 mM; Seizure suppression (PTZ-induced seizures): No
O=C(CCCCCCC(=O)Nc1ccccc1)NO [Suberoylanilide hydroxamic acid (SAHA), suberoylanilide hydroxamic acid] |  |  |  | Lethal dose (zebrafish larvae): >0.015 mM; Highest concentration tested for anti-seizure activity (zebrafish larvae): 0.015 mM; Seizure suppression (PTZ-induced seizures): No
CN1CCc2c(c3ccccc3n2Cc2ccc(C(=O)NO)cc2)C1 [Tubastatin A (Tub A), Tubastatin A] |  |  |  | Lethal dose (zebrafish larvae): >0.012 mM; Highest concentration tested for anti-seizure activity (zebrafish larvae): 0.012 mM; Seizure suppression (PTZ-induced seizures): No
CC1=C(C/C=C(\C)CCC[C@H](C)CCC[C@H](C)CCCC(C)C)C(=O)c2ccccc2C1=O [VK1, phylloquinone, reference compound] |  |  |  | protection from oxidative cell death (HT22 cells [1]; glutamate): rescued HT22 cells from oxidative cell death; cellular toxicity (HT22 cells [3]): neither exhibited any signs of cellular toxicity; reduction of seizures (PTZ-induced seizures; PTZ-treated 6 dpf zebrafish, up to 100 mM): neither were found to reduce seizures
